Counter-ions that a name gives are not always drawn.
What follows are molecules tested against T1, h5-HT5A receptor (Homo sapiens, UniProt P47898) (assay: [3H]5-CT binding assay h5-HT5A). Details: membranes from HEK293 cells expressing h5-HT5A, 2.5 nM [3H]5-CT; read-out: Binding affinity 5-HT5A (Ki).
T1 construct: expressed in transfected cells; host or cells: HEK293
Procedure, shortened: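 Membranes from HEK293 cells stably expressing h5-HT5A incubated with 2.5 nM [3H]5-CT and compound in 100 mM Tris-HCl pH 7.7, 1 mM EDTA, 75 min at 30° C. Nonspecific binding with 10 μM methiothepine; filtration and scintillation counting give Ki or IC50.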

T1 sequence (P47898 whole entry): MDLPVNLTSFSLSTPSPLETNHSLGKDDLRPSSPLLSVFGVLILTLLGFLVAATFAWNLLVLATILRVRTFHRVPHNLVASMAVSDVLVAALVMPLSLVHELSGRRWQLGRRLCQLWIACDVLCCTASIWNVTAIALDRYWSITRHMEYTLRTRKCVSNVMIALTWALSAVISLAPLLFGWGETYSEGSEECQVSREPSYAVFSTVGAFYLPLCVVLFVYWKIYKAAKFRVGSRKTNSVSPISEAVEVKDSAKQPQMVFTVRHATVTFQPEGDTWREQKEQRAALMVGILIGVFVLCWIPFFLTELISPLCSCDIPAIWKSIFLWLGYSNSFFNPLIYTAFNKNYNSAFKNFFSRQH

`COc1cccc(OC)c1CNC(=N)Nc1nc(C2CCCN2C(C)=O)cs1` (stereo not drawn) [Example 148, N-[4-(1-acetylpyrrolidine-2-yl)-1,3-thiazole-2-yl]-N′-(2,6-dimethoxybenzyl)guanidine] and `C=CCNC(=O)c1csc(NC(=N)NCc2c(OC)cccc2OC)n1` [Example 193, N-allyl-2-{[[(2,6-dimethoxybenzyl)amino](imino)methyl]amino}-1,3-thiazole-4-carboxamide] cannot be ordered by Ki: < 50 nM for the first, < 50 nM for the second.

Going from `COc1cccc(OC)c1CNC(=N)Nc1nc(C)c(C(=O)N(C)C)s1` [Example 102, 2-{[[(2,6-dimethoxybenzyl)amino](imino)methyl]amino}-N,N,4-trimethyl-1,3-thiazole-5-carboxamide] to `COc1ccccc1C(=O)NC(=N)Nc1nccs1` [Example 20, N-[Imino(1,3-thiazole-2-ylamino)methyl]-2-methoxybenzamide], the Ki rises from < 50 nM to > 500 nM.

`COC(=O)NCc1csc(NC(=N)NCc2c(OC)cccc2OC)n1` [Example 159, Methyl[(2-{[[(2,6-dimethoxybenzyl)amino](imino)methyl]amino}-1,3-thiazole-4-yl)methyl]carbamate] and “N-4H-chromeno[4,3-d][1,3]thiazole-2-yl-N′-(2,6-dimethoxybenzyl)guanidine [Example 222]” cannot be ordered by Ki: < 50 nM for the first, < 50 nM for the second.

First: COc1ccccc1CNC(=N)Nc1nc2ccccc2n1C [Example 92, N-(2-methoxybenzyl)-N′-(1-methyl-1H-benzimidazole-2-yl)guanidine]
Second: COc1cccc(C)c1CNC(=N)Nc1nc(-c2ncccn2)cs1 [Example 139, N-(2-methoxy-6-methylbenzyl)-N′-(4-pyrimidine-2-yl-1,3-thiazole-2-yl)guanidine]
The Ki of the first is higher: 50 to 500 nM for the first, < 50 nM for the second.

Going from `CC(=O)Nc1cccc(OCCCNC(=N)Nc2nccs2)c1` [Example 22, N-[3-(3-{[imino(1,3-thiazole-2-ylamino)methyl]amino}propoxy)phenyl]acetamide] to `CCOC(=O)c1csc(NC(=N)NCc2c(OC)cccc2OC)n1` [Example 192, Ethyl 2-{[[(2,6-dimethoxybenzyl)amino](imino)methyl]amino}-1,3-thiazole-4-carboxylate acetate], the Ki falls from > 500 nM to < 50 nM.

`COc1cccc(OC)c1CNC(=N)Nc1nc2cc(C)c(C)cc2s1` [Example 172, N-(2,6-dimethoxybenzyl)-N′-(5,6-dimethyl-1,3-benzothiazole-2-yl)guanidine fumarate] and `COc1cccc(OC)c1CNC(=N)Nc1nc(-c2ccc(F)cc2F)cs1` [Example 91, N-[4-(2,4-difluorophenyl)-1,3-thiazole-2-yl]-N′-(2,6-dimethoxybenzyl)guanidine hydrobromide] cannot be ordered by Ki: < 50 nM for the first, < 50 nM for the second.

Going from `COc1ccccc1CNC(=N)Nc1nc(C)c(C)s1` [Example 40] to `COc1cccc(C)c1CNC(=N)Nc1nc(-c2ccc(Cl)cn2)cs1` [Example 137, N-[4-(5-chloropyridine-2-yl)-1,3-thiazole-2-yl]-N′-(2-methoxy-6-methylbenzyl)guanidine], the Ki rises from < 50 nM to > 500 nM.

First: COc1cccc(OC)c1CNC(=N)Nc1nc(C(F)(F)F)cs1 [Example 53, N-(2,6-dimethoxybenzyl)-N′-[4-(trifluoromethyl)-1,3-thiazole-2-yl]guanidine]
Second: COc1cccc(OC)c1CNC(=N)Nc1nc2c(s1)CCc1ccccc1-2 [Example 127, N-(4,5-dihydronaphtho[1,2-d][1,3]thiazole-2-yl)-N′-(2,6-dimethoxybenzyl)guanidine]
The Ki of the first is higher: 50 to 500 nM for the first, < 50 nM for the second.

`COc1cccc(C)c1CNC(=N)Nc1nc(-c2ccccn2)cs1` [Example 140, N-(2-methoxy-6-methylbenzyl)-N′-(4-pyridine-2-yl-1,3-thiazole-2-yl)guanidine] and `COc1ccccc1CNC(=N)Nc1nc(-c2ccc(F)cc2)co1` [Example 198, N-[4-(4-fluorophenyl)-1,3-oxazole-2-yl]-N′-(2-methoxybenzyl)guanidine] cannot be ordered by Ki: < 50 nM for the first, < 50 nM for the second.

`COc1cccc(OC)c1CNC(=N)Nc1nc(-c2cccs2)cs1` [Example 90, N-(2,6-dimethoxybenzyl)-N′-[4-(2-thienyl)-1,3-thiazole-2-yl]guanidine hydrobromide] and `COC(=O)Cc1csc(NC(=N)NCc2c(OC)cccc2OC)n1` [Example 49, Methyl-(2-{[[(2,6-dimethoxybenzyl)amino](imino)methyl]amino}-1,3-thiazole-4-yl)acetate] cannot be ordered by Ki: < 50 nM for the first, < 50 nM for the second.

First: COc1ccccc1CNC(=N)Nc1nc(-c2ccccc2)co1 [Example 197, N-(2-methoxybenzyl)-N′-(4-phenyl-1,3-oxazole-2-yl)guanidine]
Second: COc1ccccc1CN=C(N)Nc1nc(-c2ccccc2)ns1 [Example 106, N″-(2-methoxybenzyl)-N-(3-phenyl-1,2,4-thiadiazole-5-yl)guanidine (2E)-But-2-endioate]
The Ki of the first is lower: 50 to 500 nM for the first, > 500 nM for the second.

First: COc1ccccc1CNC(=N)Nc1nc(-c2ccc(NS(C)(=O)=O)cc2)cs1 [Example 104, N-{4-[2-({imino[(2-methoxybenzyl)amino]methyl}amino)-1,3-thiazole-4-yl]phenyl}methanesulfonamide]
Second: COc1cccc(Cl)c1CNC(=N)Nc1nc(-c2ncc(F)cc2F)cs1 [Example 152, N-(2-chloro-6-methoxybenzyl)-N′-[4-(3,5-difluoropyridine-2-yl)-1,3-thiazole-2-yl]guanidine]
The Ki of the first is higher: > 500 nM for the first, < 50 nM for the second. The second binds more tightly here.

`COc1cccc(OC)c1CNC(=N)Nc1nc(CNC(=O)OC(C)(C)C)cs1` [Example 125, tert-butyl [(2-{[[(2,6-dimethoxybenzyl)amino](imino)methyl]amino}-1,3-thiazole-4-yl)methyl]carbamate] and `COc1cccc(OC)c1CNC(=N)Nc1nc(-c2ccc(NS(C)(=O)=O)cc2)cs1` [Example 71, N-[4-(2-{[[(2,6-dimethoxybenzyl)amino](imino)methyl]amino}-1,3-thiazole-4-yl)phenyl]methanesulfonamide hydrobromide] cannot be ordered by Ki: < 50 nM for the first, < 50 nM for the second.

Going from `COc1ccccc1CNC(=N)Nc1nccs1` [Example 1, N-(2-methoxybenzyl)-N′-1,3-thiazole-2-ylguanidine] to `COc1cccc(OC)c1CNC(=N)Nc1n[nH]cc1-c1ccccc1` [Example 218, N-(2,6-dimethoxybenzyl)-N′-(4-phenyl-1H-pyrazole-3-yl)guanidine], the Ki rises from < 50 nM to > 500 nM. The first binds more tightly here.

`COc1cccc(OC)c1CNC(=N)Nc1nc(C2CCCCC2)cs1` [Example 97, N-(4-cyclohexyl-1,3-thiazole-2-yl)-N′-(2,6-dimethoxybenzyl)guanidine] and `COc1cccc(OC)c1CNC(=N)Nc1nc(-c2ccc(C#N)cc2)cs1` [Example 60, N-[4-(4-cyanophenyl)-1,3-thiazole-2-yl]-N′-(2,6-dimethoxybenzyl)guanidine] cannot be ordered by Ki: < 50 nM for the first, < 50 nM for the second.

Going from `COc1ccccc1CNC(=N)Nc1nc(C(F)(F)F)cs1` [Example 52, N-(2-methoxybenzyl)-N′-[4-(trifluoromethyl)-1,3-thiazole-2-yl]guanidine (2E)-But-2-endioate] to “N-(2,6-dimethoxybenzyl)-N′-(5-methyl-4-phenyl-1,3-thiazole-2-yl)guanidine hydrobromide [Example 81]”, the Ki falls from > 500 nM to < 50 nM. The second binds more tightly here.

In the case of “Methyl-[2-({imino[(2-methoxybenzyl)amino]methyl}amino)-1,3-thiazole-4-yl]acetate [Example 47]”, the Ki is reported as < 50 nM.
